Data as given in ChEMBL document CHEMBL5634087, “Novel 5-aminopyrazoles endowed with anti-angiogenetic properties: Design, synthesis and biological evaluation” (Eur J Med Chem, 2023).
The source made the active and inactive calls. The rule behind the calls is not given here.

What was measured:
HeLa = test: Antiproliferative activity against human HeLa cells assessed as growth rate at 10 uM incubated for 48 hrs by MTT assay relative to control; assay type: functional; details: read-out: Activity
MCF7 = test: Antiproliferative activity against human MCF7 cells assessed as growth rate at 10 uM incubated for 48 hrs by MTT assay relative to control; assay type: functional; details: read-out: Activity
[1] = target: Mitogen-activated protein kinase; ERK1/ERK2 (Homo sapiens) (UniProt P27361+P28482); test: Inhibition of ERK1/2 phosphorylation in serum starved bFGF stimulated HFF cells assessed as residual phosphorylated ERK1/2 level at 20 uM preincubated for 10 mins followed by bFGF addition and measured after 20 mins by Western blotting analysis relative to control; assay type: cell-based; details: time 30.0 min
Mitogen-activated protein kinase; ERK1/ERK2 (Homo sapiens), sequence (P27361 whole entry, looked up): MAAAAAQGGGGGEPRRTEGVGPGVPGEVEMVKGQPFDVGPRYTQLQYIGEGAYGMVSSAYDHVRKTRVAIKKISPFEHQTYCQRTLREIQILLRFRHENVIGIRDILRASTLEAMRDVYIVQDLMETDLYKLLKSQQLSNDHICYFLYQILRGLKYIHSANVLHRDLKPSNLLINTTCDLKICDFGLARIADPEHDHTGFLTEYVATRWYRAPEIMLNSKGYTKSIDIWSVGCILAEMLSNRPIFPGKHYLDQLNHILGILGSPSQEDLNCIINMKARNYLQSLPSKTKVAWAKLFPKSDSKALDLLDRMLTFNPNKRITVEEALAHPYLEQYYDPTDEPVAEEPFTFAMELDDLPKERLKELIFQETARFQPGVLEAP
Mitogen-activated protein kinase; ERK1/ERK2 (Homo sapiens), sequence (P28482 whole entry, looked up): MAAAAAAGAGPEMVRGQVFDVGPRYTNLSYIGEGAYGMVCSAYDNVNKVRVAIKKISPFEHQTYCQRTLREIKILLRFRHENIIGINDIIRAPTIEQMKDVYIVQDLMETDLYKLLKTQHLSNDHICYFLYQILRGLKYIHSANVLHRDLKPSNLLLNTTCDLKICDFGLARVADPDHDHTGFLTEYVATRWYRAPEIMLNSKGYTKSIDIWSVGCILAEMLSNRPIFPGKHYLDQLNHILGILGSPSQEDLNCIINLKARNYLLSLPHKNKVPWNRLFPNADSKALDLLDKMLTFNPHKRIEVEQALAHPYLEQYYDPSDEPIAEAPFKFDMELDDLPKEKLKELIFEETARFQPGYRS

HFF = test: Antiangiogenic activity in confluent HFF cells assessed as inhibition of cell migration at 20 uM incubated for 24 to 48 hrs by Hoechst 33342 staining based wound healing assay; assay type: functional; details: Homo sapiens, time 24-48 hrs
SK-OV-3 = test: Antiproliferative activity against human SK-OV-3 cells assessed as growth rate at 10 uM incubated for 48 hrs by MTT assay relative to control; assay type: functional; details: read-out: Activity
SK-MEL-28 = test: Antiproliferative activity against human SK-MEL-28 cells assessed as growth rate at 10 uM incubated for 48 hrs by MTT assay relative to control; assay type: functional; details: read-out: Activity
HepG2 = test: Antiproliferative activity against human HepG2 cells assessed as growth rate at 10 uM incubated for 48 hrs by MTT assay relative to control; assay type: functional; details: read-out: Activity
MDA-MB-231 = test: Antiproliferative activity against human MDA-MB-231 cells assessed as growth rate at 10 uM incubated for 48 hrs by MTT assay relative to control; assay type: functional; details: read-out: Activity
[2] = Cytotoxicity against human GM06114 cells assessed as growth rate at 10 uM incubated for 48 hrs by MTT assay relative to control; assay type: toxicity, cell-based; details: gm06114, 48 h
HUVEC = test: Antiangiogenic activity in confluent VEGF stimulated HUVEC cells assessed as inhibition of cell migration at 20 uM incubated for 24 to 48 hrs by Hoechst 33342 staining based wound healing assay; assay type: functional; details: Homo sapiens, time 24-48 hrs
[3] = target: RAC-alpha serine/threonine-protein kinase (Homo sapiens) (UniProt P31749); test: Inhibition of AKT phosphorylation in serum starved bFGF stimulated HFF cells at 20 uM preincubated for 10 mins followed by bFGF addition and measured after 20 mins by Western blotting analysis; assay type: cell-based; details: time 30.0 min
RAC-alpha serine/threonine-protein kinase (Homo sapiens), sequence (P31749 whole entry): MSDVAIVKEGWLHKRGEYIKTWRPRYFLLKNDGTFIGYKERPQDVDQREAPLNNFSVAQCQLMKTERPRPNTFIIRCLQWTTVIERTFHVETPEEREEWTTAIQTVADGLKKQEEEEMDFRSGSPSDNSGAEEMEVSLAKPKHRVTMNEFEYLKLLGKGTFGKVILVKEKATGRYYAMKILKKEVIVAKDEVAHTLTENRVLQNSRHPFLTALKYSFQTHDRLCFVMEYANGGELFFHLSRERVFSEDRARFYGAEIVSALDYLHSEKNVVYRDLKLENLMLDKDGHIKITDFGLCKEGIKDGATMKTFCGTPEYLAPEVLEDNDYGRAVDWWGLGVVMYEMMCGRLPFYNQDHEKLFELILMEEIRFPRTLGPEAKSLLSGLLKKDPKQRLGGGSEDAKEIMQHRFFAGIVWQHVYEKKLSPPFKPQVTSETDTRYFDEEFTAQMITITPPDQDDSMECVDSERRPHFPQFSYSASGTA

A549 = test: Antiproliferative activity against human A549 cells assessed as growth rate at 10 uM incubated for 48 hrs by MTT assay relative to control; assay type: functional; details: read-out: Activity
SK-BR-3 = test: Antiproliferative activity against human SK-BR-3 cells assessed as growth rate at 10 uM incubated for 48 hrs by MTT assay relative to control; assay type: functional; details: read-out: Activity
[4] = target: RAC-alpha serine/threonine-protein kinase (Homo sapiens) (UniProt P31749); test: Inhibition of AKT phosphorylation in serum starved VEGF stimulated HUVEC cells at 20 uM preincubated for 10 mins followed by VEGF addition and measured after 20 mins by Western blotting analysis relative to control; assay type: cell-based; details: time 30.0 min

| Structure (SMILES) | growth at 10 µM (HeLa) | growth at 10 µM (MCF7) | Activity [1] | Activity (HFF) | growth at 10 µM (SK-OV-3) | growth at 10 µM (SK-MEL-28) | growth at 10 µM (HepG2) | growth at 10 µM (MDA-MB-231) | Activity [2] | Activity (HUVEC) | inhibition [3] | growth at 10 µM (A549) | growth at 10 µM (SK-BR-3) | inhibition [4] |
| --- | --- | --- | --- | --- | --- | --- | --- | --- | --- | --- | --- | --- | --- | --- |
| CCOC(=O)c1c(Nc2ccc(C)cc2)nn(CC(OC(=O)Nc2cccc(C(F)(F)F)c2)c2ccccc2)c1N (configuration not stated) | 81.4% | 129% | > 70% | inactive | 131% | 129% | 122% | 124% | 126.2% | inactive | inactive | 98.4% | 124% |  |
| CCCCC(Cn1nc(Nc2ccc(C)cc2)c(C(=O)OCC)c1N)OC(=O)Nc1cccc(C(F)(F)F)c1 (configuration not stated) | 97% | 143% | > 70% | inactive | 129% | 123% | 111% | 149% | 99.16% | inactive | inactive | 112% | 110% |  |
| CCCCC(O)Cn1nc(Nc2cccc(Cl)c2)c(C(=O)OCC)c1N (configuration not stated) | 117% | 137% | > 70% | Active | 128% | 106% | 108% | 140% | 92.22% | inactive | inactive | 136% | 108% |  |
| CCCCC(O)Cn1nc(Nc2ccccc2)c(C(=O)OCC)c1N (configuration not stated) | 115% | 147% | > 70% | Active | 118% | 117% | 102% | 131% | 97.13% | inactive | Active | 130% | 109% | 43% |
| CCCCC(Cn1nc(Nc2ccccc2)c(C(=O)OCC)c1N)OC(=O)Nc1cccc(C(F)(F)F)c1 (configuration not stated) | 85.8% | 141% | > 70% | inactive | 113% | 123% | 107% | 126% | 96.63% | inactive | inactive | 98.1% | 112% |  |
| CCCCC(O)Cn1nc(Nc2ccccc2C)c(C(=O)OCC)c1N (configuration not stated) | 99% | 118% | > 70% | Active | 115% | 121% | 99.9% | 127% | 114.61% | inactive | Active | 127% | 110% | 43% |
| CCCCC(Cn1nc(Nc2ccc(Cl)cc2)c(C(=O)OCC)c1N)OC(=O)Nc1cccc(C(F)(F)F)c1 (configuration not stated) | 76.5% | 107% | > 70% | inactive | 106% | 136% | 110% | 117% | 111.34% | inactive | inactive | 90.7% | 118% |  |
| CCCCC(Cn1nc(Nc2ccccc2C)c(C(=O)OCC)c1N)OC(=O)Nc1cccc(C(F)(F)F)c1 (configuration not stated) | 58.5% | 110% | > 70% | inactive | 103% | 141% | 106% | 117% | 110.05% | inactive | inactive | 81.7% | 124% | 29.7% |
